Source: patent US20240216370A1, “TREATMENT OF CORNEAL VASCULARISATION” (VESTLANDETS INNOVASJONSSELSKAP AS, priority 2020, published 2024)
“Also recorded” adds a separate entry of the source.

Tests used:
[1] = target: T1, PDGFRβ (N666Y) (Homo sapiens, UniProt P09619, N666Y); experiment: ELISA analysis of phosphorylated PDGFRβ in OPDKD patient fibroblasts; format: cell-based
T1 construct: Fibroblasts from affected individuals and healthy controls were obtained; endogenous in cells; host or cells: fibroblasts from OPDKD patients
Protocol: Fibroblasts from affected individuals and healthy controls were obtained. Transgenic HeLa cells were transduced with a murine retroviral vector containing the PDGFRβ (NM_002609.3) c.wt, c. 1996A>T (OPDKD) and c.1997A>G (a different activating mutation associated with severe Penttinen syndrome) variants.
In OPDKD, the affected parts of the body (corneas and skin, particular fingers and toes) are all exposed to variable temperatures. ^8 At a typical room temperature (20-22° C.) corneal temperatures lie around 32-34° and fall to around 30° C. as air temperatures reaches 0° C. ^9 We studied the effect of this physiological temperature difference on PDGFRβ auto-phosphorylation and signaling in OPDKD. Cells were either kept at 37° ° C. or incubated overnight at 32° C. […] For ELISA analysis of phosphorylated PDGFRβ, a DuoSet® IC Phospho-PDGFRβ kit (R&D systems) was used. Cell lysates were also subjected to immunoblot analysis with primary antibodies against downstream signaling partners: phospho-Ser473-AKT, phospho-Thr308-AKT, phospho-Tyr70-STAT1, STAT1, phospho-Tyr783-PLCγ1, PLCγ1, phospho-Thr202/Tyr204-MAPK3/ERK1 and MAPK3/ERK1 (all from Cell Signaling Technology). […]

[2] = system: AKT; experiment: Immunoblot of downstream signaling partner AKT (phospho-Ser473, phospho-Thr308) in patient fibroblasts; format: cell-based, human; details: 0.1 μM imatinib
Protocol: Cells were either kept at 37° ° C. or incubated overnight at 32° C. Cells were then left untreated or treated with 0.1 μM imatinib (STI571, Selleckchem) for 6 hours. For ELISA analysis of phosphorylated PDGFRβ, a DuoSet® IC Phospho-PDGFRβ kit (R&D systems) was used. Cell lysates were also subjected to immunoblot analysis with primary antibodies against downstream signaling partners: phospho-Ser473-AKT, phospho-Thr308-AKT, phospho-[MUT]-STAT1, STAT1, phospho-[MUT]-PLCγ1, PLCγ1, phospho-Thr202/Tyr204-MAPK3/ERK1 and MAPK3/ERK1 (all from Cell Signaling Technology).

[3] = system: OPDKD patient; experiment: Oral (systemic) imatinib treatment of an OPDKD patient, effect in the eye; format: in vivo, human; details: systemic imatinib for almost one year, 6 months at maximal recommended dose of 800 mg

T1 sequence (P09619 33-1106 N666Y): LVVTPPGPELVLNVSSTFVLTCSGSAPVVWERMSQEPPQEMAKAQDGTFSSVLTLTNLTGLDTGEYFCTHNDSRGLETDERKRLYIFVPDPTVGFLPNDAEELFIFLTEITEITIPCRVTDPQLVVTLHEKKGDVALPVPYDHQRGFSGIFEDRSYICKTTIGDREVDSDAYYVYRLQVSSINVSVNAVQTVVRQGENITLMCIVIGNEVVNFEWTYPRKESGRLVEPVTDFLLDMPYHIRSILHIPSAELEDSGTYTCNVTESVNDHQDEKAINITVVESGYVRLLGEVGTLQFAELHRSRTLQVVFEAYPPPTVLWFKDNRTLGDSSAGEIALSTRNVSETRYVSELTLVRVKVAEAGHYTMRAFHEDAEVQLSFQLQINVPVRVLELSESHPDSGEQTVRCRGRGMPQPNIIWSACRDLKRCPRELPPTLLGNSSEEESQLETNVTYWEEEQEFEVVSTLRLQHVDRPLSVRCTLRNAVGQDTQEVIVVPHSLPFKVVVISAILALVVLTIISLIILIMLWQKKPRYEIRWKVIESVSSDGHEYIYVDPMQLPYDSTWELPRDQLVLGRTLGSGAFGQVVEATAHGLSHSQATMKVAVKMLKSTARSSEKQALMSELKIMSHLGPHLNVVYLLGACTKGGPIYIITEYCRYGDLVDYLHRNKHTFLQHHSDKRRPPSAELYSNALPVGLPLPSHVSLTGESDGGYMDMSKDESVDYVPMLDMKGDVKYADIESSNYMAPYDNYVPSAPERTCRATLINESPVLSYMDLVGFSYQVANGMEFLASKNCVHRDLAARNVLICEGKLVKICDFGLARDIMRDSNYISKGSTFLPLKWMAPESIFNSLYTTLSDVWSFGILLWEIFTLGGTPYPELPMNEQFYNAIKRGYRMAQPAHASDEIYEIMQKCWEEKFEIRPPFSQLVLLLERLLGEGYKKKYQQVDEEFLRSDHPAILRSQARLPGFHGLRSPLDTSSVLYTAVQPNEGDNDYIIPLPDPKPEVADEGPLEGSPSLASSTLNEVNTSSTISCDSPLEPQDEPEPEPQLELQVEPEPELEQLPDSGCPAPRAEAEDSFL

sensitivity of OPDKD fibroblasts compared with Penttinen fibroblasts ([1]; OPDKD (N666Y) vs Penttinen (N666S) fibroblasts): less sensitive
effect on levels of P-PDGFRβ and downstream proteins ([1]; OPDKD fibroblasts, imatinib, 6 hours): clear, dose dependent effect
levels of phosphorylated PDGFRβ ([1]; patient fibroblasts, high doses of imatinib (1 μM)): normalization
Compound: Cc1ccc(NC(=O)c2ccc(CN3CCN(C)CC3)cc2)cc1Nc1nccc(-c2cccnc2)n1 [imatinib]
phosphorylation of Ser473 and Thr308 AKT [2]: Normalization
effect of the drug on the eye of an OPDKD patient [3]: no effect; also recorded: without effect
